In US9498035B2, “Silicone hydrogel contact lenses for sustained release of beneficial polymers” (CooperVision International Holding Company, LP, priority 2012, dated 2016):

What was measured:
[1] = Uptake of αPLL of varying molecular weight by Formulation C lenses; format: physicochemical; conditions: 1.8 ml 500 ppm αPLL in PBS, autoclave and overnight storage at room temperature, hydrobromide
Description: Solutions of 500 ppm poly-L-lysine hydrobromide (CAS No. 25988-63-0) (αPLL) with varying molecular weight ranges were prepared in PBS. Lenses of Formulation C prepared as described in Example 1 were packaged with 1.8 ml of each solution and autoclaved. After autoclave and overnight storage at room temperature uptake of αPLL was measured.

[2] = Release of αPLL of varying molecular weight from Formulation C lenses; format: physicochemical; conditions: for release between the 6 hour and 24 hour time points (in words): hydrobromide
Description: Lenses of Formulations B-E prepared according to Example 1 were used in this study. The lenses were immersed in 1.2 ml of 500 ppm εPLL in PBS for 48 hours as described in Example 3. Excess solution was removed from each lens by gently blotting with an absorbent tissue. Each lens was immersed in 1 ml of ISO 10344 standard saline solution (0.83% sodium chloride, 0.0467% sodium phosphate monobasic, and 0.4486% sodium phosphate dibasic) in a well of a 12-well plate and covered. The plates were shaken at 100 rpm at 37±2° C. At 2, 4, 6, 8, 12, and 24 hours, the solution was removed from each well and replaced with 1 ml of fresh ISO 10344 standard saline solution. HPLC was used to determine the amount of εPLL released from each lens.
Polymer release was tested substantially as described in Example 4, except that the time points tested were at 2, 6, and 24 hr.

Substance	uptake [1]	duration of sustained release (in words) [2]	release between the 6 hour and 24 hour time points (in words) [2]	release of polymer detected (in words) ([2]; time points 2, 6, and 24 hr)
poly-L-lysine hydrobromide [Formulation 1K-5K]	142 μg/lens	sustained for at least two hours	no significant release	
poly-L-lysine hydrobromide [Formulation 4K-15K]	400 μg/lens		significant release	
poly-L-lysine hydrobromide [Formulation 15K-30K]	414 μg/lens		significant release	
poly-L-lysine hydrobromide [Formulation 30K-70K]	299 μg/lens			
poly-L-lysine hydrobromide [Formulation 70K-150K]	185 μg/lens			No significant release
poly-L-lysine hydrobromide [Formulation 500-2K]	122 μg/lens	sustained for at least two hours	no significant release	
